Laboratory results from publication PMC10283052, “Intranasal delivery of mitochondrial protein humanin rescues cell death and promotes mitochondrial function in Parkinson's disease” (Theranostics, 2023).

Legend:
[1] = tested on: Murine primary dopaminergic neurons; assay: MPP+ toxicity in primary dopaminergic neurons (MTT, neurite analysis); assay type: cell-based, mouse
Method: Primary mesencephalic cell cultures were prepared using gestational day 13.5 embryos from C57BL/6J mice, as previously described. The mesencephalon was dissected from the embryos and dissociated in a medium containing 0.25% trypsin-EDTA and 0.05% DNase in PBS for 15 min at 37 °C. Tissue samples were mechanically dissociated by gentle pipetting using Pasteur pipettes. After centrifugation at 400 x g for 5 min, the cells were plated in Neurobasal-A medium (Thermo Fisher Scientific, Waltham, MA, USA) supplemented with 2% B27 supplement (Thermo Fisher Scientific), 1× Glutamax (Thermo Fisher Scientific), 5% fetal bovine serum (FBS), 0.36% D-glucose, and 1% Penicillin/Streptomycin (P/S) in poly-L-ornithine/laminin (Sigma-Aldrich)-coated plates. On day 4 in vitro (DIV), the plating medium was replaced, and the neurons were used on DIV 8 for subsequent experiments.
Following treatment with the aforementioned reagents, the cells were washed and treated with 3-(4,5-dimethylthiazol-2-yl)-2,5-diphenyl-tetrazolium bromide (MTT, Thermo Fisher Scientific). Briefly, the cells were seeded in a 96-well plate at a density of 5 × 10^3 cells/well. After 24 h, a neurotoxin 1-methyl-4-phenylpyridinium (MPP^+) (Sigma-Aldrich) was applied to induce toxicity in neuronal cells. Next, the cells were incubated with MTT for 4 h, and formazan crystals were solubilized using DMSO. Absorbance was measured using a multi-plate reader at a wavelength of 570 nm, and the viability of the cells was recorded as a percentage of the control.

[2] = tested on: SH-SY5Y cells; assay: Real-time qPCR of mitochondrial rRNA and humanin transcripts; assay type: cell-based, human
Method: For real-time qPCR, total RNA was extracted using TRIzol reagent (Thermo Fisher Scientific). cDNA was synthesized using a cDNA synthesis kit (Bioneer Corporation), according to the manufacturer's protocol. The mRNA levels were analyzed in a LightCycler 96 (Roche, Basel, Switzerland) using SYBR Green I master mix and SensiFAST™ SYBR® No-ROX Kit (Bioline, Paris, France). B2M (beta-2-microglobulin) gene expression was used to normalize gene expression data. The primer sequences used in this experiment are in Table S2.

[3] = tested on: SH-SY5Y cells; assay: Mitochondrial mass and network morphology, MitoTracker Green; assay type: cell-based, human; details: HN 20 μM, 24 h
Method: For staining, the cells were seeded on PDL-coated glass slides and treated as indicated above. The samples were fixed using methanol and permeabilized using 0.1% Triton X-100 in PBS. After blocking with 5% bovine serum albumin (BSA), the cells were incubated with the appropriate primary antibody [anti-HN (1:500, Cat no # RA19000, Neuromics, Edina, MN, USA), anti-TH (1:500, Cat no # P40101, Pel-Freez Biologicals, Rogers, AR, USA), anti-lectin (1:200, Cat no # L32482, Thermo Fisher Scientific), anti-α-SMA (1:500, Cat no # ab5694, Abcam, Cambridge, MA, USA), and anti-GFAP (1:200, Cat no # sc-33673, Santa Cruz, Santa Cruz, USA)]. After incubation, the samples were washed and incubated with Alexa Fluor 594- or 488-conjugated antibodies (Thermo Fisher Scientific). The nuclei were stained using Hoechst 33342 (Sigma-Aldrich) and mounted using an anti-fade solution (Thermo Fisher Scientific). Fluorescent images were captured at the Neuroscience Translational Research Solution Center (Busan, South Korea) using an LSM 700 confocal microscope (Zeiss, Jena, Germany). The mitochondrial network morphology was assessed using the FIJI/ImageJ software as described previously.

[4] = tested on: SH-SY5Y cells; assay: Mitochondrial membrane potential (TMRM) and mitochondrial ROS (MitoSOX); assay type: cell-based, human
Method: The SH-SY5Y cells were cultured in 96-well plates for 24 h before treatment. At the indicated time points, the cellular medium was removed, and the cells were washed with PBS. Mitochondrial ROS levels were measured using MitoSOX Red (Thermo Fisher Scientific) as described previously. The cells were counterstained using Hoechst 33342 (Sigma-Aldrich). Fluorescence intensity was quantified using a Synergy H1 multimode microplate reader (BioTek, Winooski, VT, USA) according to the manufacturer's protocol.
The cells were seeded in 96-well plates and treated as described above. To analyze the mitochondrial membrane potential, TMRM (Thermo Fisher Scientific) was used according to the manufacturer's instructions. The cells were counterstained using Hoechst 33342 (Sigma-Aldrich). Fluorescence intensity was assessed using a Synergy H1 multimode microplate reader or an LSR Fortessa cytometer at the Neuroscience Translational Research Solution Center.

[5] = HN pre-treatment 12 h, then MPP+ 100 μM 24 h, dose-dependent

humanin (MAPRGFSCLLLLTSEIDLPVKRRA; Humanin; UniProt Q8IVG9 1-24, looked up) [HN, mitochondria-derived peptide encoded by the mitochondrial genome, synthesized by Fmoc-based SPPS at GL Biochem]
neurite number ([1]; HN 1 μM versus DMSO): increased neurite number | neurite loss induced by MPP+ [1, 5]: rescued the neurite loss and neuronal death | neuronal death induced by MPP+ (viability, MTT) [1, 5]: rescued the neurite loss and neuronal death | average length of all sprouting neurites per neuron ([1]; HN-treated versus DMSO-treated neurons, slightly higher): not statistically significant | transcript levels of regions across mitochondrial rRNA and humanin ([2]; up to 24 h after HN treatment, slightly declined over time): significantly upregulated up to 24 h | transcript levels of regions across mitochondrial rRNA and humanin ([2]; within 3 h of HN treatment): significant upregulation | mitochondrial branch length ([3]; versus DMSO): longer rods and branches of mitochondria | mitochondrial volume ([3]; versus DMSO): increase in mitochondrial volume | number of branches per mitochondrial network ([3]; versus DMSO): increase | mitochondrial mass ([3]; MitoTracker Green): increased mitochondrial mass | FCCP-induced mitochondrial depolarization ([4]; HN pre-treatment 24 h, 20 μM, FCCP 5 μM, 15 min, flow cytometry): effective in restoring | mitochondrial membrane potential (TMRM) ([4]; HN pre-treatment before MPP+, flow cytometry, normalized to Hoechst 33342): effectively inhibited reduction in mitochondrial potential | mitochondrial ROS production (MitoSOX) ([4]; HN pre-treatment before MPP+, normalized to Hoechst 33342): effectively inhibited
